Data reported in patent EP0923292B1, “IMPROVED METHOD FOR SYSTEMIC ADMINISTRATION OF 2,4-DIENOIC ACID-TYPE INSECTICIDES TO TERRESTRIAL MAMMALS” (priority 1996, dated 1998).

Assay: Methoprene blood concentrations in dogs following a single oral dose (gas chromatography)
Assay type: in vivo
Details: single oral dose 50 mg/kg
Method: Six healthy mixed breed dogs, three male and three female, of weight ranging from 14 to 22 kg per dog and ages ranging from 2 to 5 years, were utilized. For each dog, a gelatin capsule containing a measured volume of (S)-methoprene was prepared, based on the dog's weight to yield a dose of 50 mg/kg of the dog's body weight in a single gelatin capsule for each dog. The dogs were fasted 24 hours before administration of their individual capsules, and dosing was achieved by placing the capsule in the back of each dog's throat and causing the dog to swallow. Food was then withheld for an additional 8 hours, although water was always available, and the dogs were fed once the following morning.
At each sampling time, 50 mL of blood was collected from the femoral vein of each dog into two 25-mL syringes. Samples were taken seven days prior to dosing (to establish a baseline), followed by three hours, 1 day, 2 days, 4 days, and 7 days after dosing.
To prepare the blood samples for methoprene content determinations, each 25-mL blood sample was mixed with 200 mL acetonitrile, 25 g anhydrous Na2SO4, and 10 g CELITE® in a blender for three one-minute segments, allowing the blender blades to cool for thirty seconds between segments. The mixture was then vacuum filtered, including a wash with 50 mL acetonitrile. The filtrate was extracted with petroleum ether for one minute, then diluted with 700 mL deionized water. To this was added 50 g NaCI and the solution was acidified to pH 2 with 0.5 N HCl. The aqueous phase was then discarded, and the petroleum ether phase was washed twice with 600 mL of deionized water. The petroleum ether was then filtered through a glass wool plug topped with 50 g Na2SO4. The Na2SO4 was then rinsed with 15 mL petroleum ether, and the extractant concentrated to 10 mL in a rotary evaporator, using a bath temperature of 30°C. The concentrated extractant was then stored in a refrigerator until the next step in the analysis.
Extraction columns were prepared by heat activating FLORISIL® (magnesium silicate absorbent) at 200°C for 24 hours, then allowing the FLORISIL to cool for 45 minutes, adding 5 mL of distilled water per 50 g of FLORISIL, shaking the mixture, and allowing it to equilibrate for 3 hours. A glass column with 28 mm intemal diameter was plugged with glass wool and filled with petroleum ether. A 1-cm layer of Na2SO4 was slowly poured into the column, followed by 6.5 cm of FLORISIL and 1.5 cm of Na2SO4. The petroleum ether was then drained until it reached the layer of Na2SO4. The extractant from the preceding paragraph was then loaded into the top of the column with a glass pipette, and its content rinsed with petroleum ether and added to the column. The column was then drained until the solvent layer was above the Na2SO4, and the eluant was discarded. Elution was then performed with 1 L of 5% diethyl ether/petroleum ether for each sample, and fractions of 175 mL and 825 mL were collected. The 825 mL fraction was then evaporated to 5 mL and stored in a refrigerator.
To prepare the 825 mL fraction for gas chromatography, one mL of internal standard was added to the sample, and the sample volume was evaporated to approximately 0.3 mL with nitrogen. Two aliquots of 5 µL each were injected on a gas chromatograph (Perkin Elmer, Sigma 300, with hydrogen flame ionization detector and data system) equipped with a 6-foot-by 1/4-inch glass column with 3% OV-101 Chrom W HP 100/120 mesh packing, using nitrogen at 60 mUmin as the carrier gas, and injector, column and detector temperatures of 300°C, 166°C, and 280°C, respectively.

Work on COC(C)(C)CCC[C@H](C)C/C=C/C(C)=C/C(=O)OC(C)C [(S)-Methoprene, 1-isopropyl (E,E)-11-methoxy-3,7,11-trimethyl dodecadi-2,4-enoate] yielded a concentration at 0 h (both sexes, mixed breed, dog, in vivo, mean of six dogs, 0 hours (baseline, seven days prior to dosing)) of 0 ng/mL, a concentration at 3 h (both sexes, mixed breed, dog, in vivo, mean of six dogs, 3 hours) of 547 ng/mL and a concentration at 24 h (both sexes, mixed breed, dog, in vivo, mean of six dogs, 24 hours) of 85 ng/mL. For the same compound, the concentration at 48 h (both sexes, mixed breed, dog, in vivo, mean of six dogs, 48 hours) was 104 ng/mL, the “time by which methoprene level fell below detectable amounts” value (remaining four of the six dogs) was at most 96 h and the “time (S)-methoprene remains in the dogs' blood” value was 48 to 96 h. The “time by which methoprene level fell below detectable amounts” value (two of the six dogs) was at most 48 h.
